According to patent US10683267B1, “Antidiabetic compounds” (King Abdulaziz University, priority 2019, dated 2020):
Entries after “also recorded” stand apart in the source; their conditions may differ. Like-named read-outs stand apart in the source and are kept apart here. Marks after values point to notes of the source that are not given here.

How the values were obtained:
[1] = molecular target: T1, DPP-IV enzyme (Homo sapiens, UniProt P27487); assay: In vitro DPP-IV inhibition assay (Biovision kit, fluorescence); type: biochemical; conditions: for % Inhibition @ 100 nM / inhibition at 0.1 µM: compound at 100 nM; for DPP-4 enzyme inhibition activity, in words: SAR discussion; for % Inhibition (values marked *: inhibition at 1000 nM): compound at 1000 nM
T1 construct: purchased Biovision (Milpitas, Calif., USA)
T1 sequence (P27487 whole entry, species assumed): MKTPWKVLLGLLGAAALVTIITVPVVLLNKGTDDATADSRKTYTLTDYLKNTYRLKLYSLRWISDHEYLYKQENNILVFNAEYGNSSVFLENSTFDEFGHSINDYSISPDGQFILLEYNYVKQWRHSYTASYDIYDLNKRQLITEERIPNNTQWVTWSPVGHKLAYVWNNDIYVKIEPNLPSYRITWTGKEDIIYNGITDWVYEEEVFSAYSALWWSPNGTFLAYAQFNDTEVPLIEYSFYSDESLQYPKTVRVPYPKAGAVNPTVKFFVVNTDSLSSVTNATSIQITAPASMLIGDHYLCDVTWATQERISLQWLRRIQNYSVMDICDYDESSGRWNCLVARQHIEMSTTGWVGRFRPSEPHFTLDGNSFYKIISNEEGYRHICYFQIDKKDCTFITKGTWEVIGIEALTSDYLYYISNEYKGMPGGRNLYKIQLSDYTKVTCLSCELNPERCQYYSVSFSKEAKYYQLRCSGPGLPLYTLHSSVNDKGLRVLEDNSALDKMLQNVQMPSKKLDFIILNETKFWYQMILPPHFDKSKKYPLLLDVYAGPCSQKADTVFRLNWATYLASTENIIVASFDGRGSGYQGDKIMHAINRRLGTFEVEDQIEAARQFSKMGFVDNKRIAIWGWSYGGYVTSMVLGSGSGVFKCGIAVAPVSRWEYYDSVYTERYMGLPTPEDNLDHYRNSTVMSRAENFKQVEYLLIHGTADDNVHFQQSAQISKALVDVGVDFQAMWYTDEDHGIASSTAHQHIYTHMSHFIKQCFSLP
Experimental: DPP-IV inhibition assay was conducted using a kit purchased from Biovision (Milpitas, Calif., USA). Briefly, DPP-IV enzyme was diluted with Tris buffer and pipetted 50 μl into glass mini-cells. […] Finally a volume of 25 μl of DPP-IV substrate was added into each tube. The fluorescence generated from hydrolysis of the substrate was read at Ex/Em=360/460 nm using Modulus® single tube multimode reader (Promega, USA). Baseline fluorescence was recorded before incubation (R1) and 20 min after incubation (R2).
The standard DPP-IV inhibitor drug sitagliptin employed as positive control. […] Sigmoidal concentration-response curves for DPP-IV % inhibition versus log concentration were plotted using Graphpad prism software, version 5.00 (GraphPad Software, Inc. La Jolla, Calif., USA).

[2] = tested on: diabetic mice; assay: Oral glucose tolerance test (OGTT) after multiple doses (6 days) in diabetic mice; type: in vivo; conditions: for R.P. to Vildagliptin (6 Days): Table 6, relative potency, B.G. = blood glucose; for AUC % change from diabetic control / AUC Δ from diabetic control / Relative potency to vildagliptin / AUC of blood glucose in OGTT (X, mean): 50 mg/kg oral for 6 days; for Relative potency to vildagliptin: OGTT AUC; for AUC of blood glucose in OGTT (X, mean): glucose load 2 g/kg 2 h after 6th dose, AUC 0-120 min
Experimental: (§1) The Biochemical and Research Ethical Committee of King Abulaziz University (Jeddah, Saudi Arabia), in accordance with the NIH guidelines, approved all procedures, and the animals received human care during the experimental period. Experiments were carried out using adult male Swiss albino mice (SWR), of 8-9 weeks age and 30-35 g weight. Animals were purchased from the animal house of the King Fahed Medical Research center (KFMRC), Jeddah, Saudi Arabia. Mice were kept at a constant temperature of 24-25° C. and were subjected to a controlled 12 h light-dark cycle; they had free access to water and pelleted diet ad libitum.
(§2) Nicotinamide (210 mg/kg b.w.), dissolved in saline, was injected intraperitoneally 15 min before the intraperitoneal injection of Streptozotocin (STZ) (Sigma, 180 mg/kg b.w.), which was freshly prepared in citrate buffer (pH 4.5). Control animals received both vehicles. During the experimental period, animals' food intake and body weight gain were monitored once a week.
(§3) On the same groups that received the single dose treatment, the tested compounds were given daily by oral gavage for six consecutive days. On day 6, the overnight fasted diabetic mice were pretreated with the 6th oral dose of the tested compounds. Two hours later, an oral glucose was loaded (2 g/kg/10 ml b.w.). Blood glucose levels were determined using the Accu-check Go®. Samples were collected just before drug administration (Fasting Blood glucose), then 2 h after drug treatment and before glucose administration. Samples collection was continued at 20, 40, 60 and 120 min intervals after glucose loading.

[3] = tested on: diabetic mice; assay: Oral glucose tolerance test (OGTT) after single dose in diabetic mice; type: in vivo; conditions: for R.P. to Vildagliptin (Single Dose): Table 6, relative potency, B.G. = blood glucose; for AUC of blood glucose in OGTT (X, mean): glucose load 2 g/kg 2 h later, AUC 0-120 min
Experimental: as §1, §2
Oral glucose tolerance tests were performed in 14 h overnight fasted diabetic mice that were pretreated with a single oral dose of the tested compounds. […] The drugs were suspended in carboxymethyl cellulose (CMC)-Na (1% in distilled water) and the dosing volume was adjusted at 10 mL/kg body weight of the mouse. Then an oral glucose load was administered (2 g/kg) 2 h after drug treatment. Blood glucose levels were determined using the Accu-check Go® (Roche Diagnostics, Michigan, USA). Samples were collected just before drug administration (fasting blood glucose), then at 2 h after drug treatment (immediately before glucose loading). Then blood sample collection was continued at 20, 40, 60 and 120 min intervals after glucose loading.
Animals were distributed between three categories of groups. Each group is composed of six animals (n=6) […] as follows:
Category 1: One group of animals were 14 h overnight-fasted normoglycemic mice and vehicle-treated (1% CMC-Na) at a dose of 10 ml/kg.
Category 2: Another group of animals was overnight fasted diabetic mice received the vehicle (1% CMC-Na) at a dosing volume of 10 ml/kg and served as a negative control.
Category 4: Animals of these groups were overnight fasted diabetic mice received the tested compounds at a dose of 50 mg/kg in 1% CMC (volume of 10 ml/kg).

[4] = tested on: diabetic mice; assay: Fasting blood glucose of diabetic mice treated daily for 6 consecutive days; type: in vivo; conditions: 50 mg/kg oral daily
Experimental: as §1, §2, §3
The oral glucose tolerance test (OGTT) was performed over six days on diabetic mice. The glucose level was monitored daily (Table 3). The results were analyzed for activities after a single dose (Table 4) and after the 6th dose of the drug (Table 5).

[5] = Table 2, head prints no unit, nM per Table 6, read-out: IC50
[6] = read-out: enzymatic inhibition value / inhibitory activity (IC50)

Row | Compound | IC50 [1, 5] | IC50 ([1]; Table 6, read-out: IC50) | % Inhibition @ 100 nM [1] | R.P. to Vildagliptin (6 Days) [2] | R.P. to Vildagliptin (Single Dose) [3] | DPP-4 enzyme inhibition activity, in words [1] | % Inhibition (values marked *: inhibition at 1000 nM) [1] | also measured
1 | Cc1ccccc1NC(=O)CNC12CC3CC(CC(O)(C3)C1)C2 [Compound 2] | 10.1 nM | 10.1 nM | 86.82% | 1.2 | 0.42 | – | – | IC50 [1, 6]: 10.3 nM
2 | Cc1ccc(NC(=O)CNC23CC4CC(CC(O)(C4)C2)C3)cc1 [Compound 3] | – | – | 28.38% | – | – | much weaker enzyme inhibition activities | – | –
3 | COc1ccccc1NC(=O)CNC12CC3CC(CC(O)(C3)C1)C2 [Compound 5] | 94.1 nM | 94.1 nM | – | 0.26 | 0.66 | weakened the enzyme inhibition activities | 93.48* % | –
4 | O=C(CNC12CC3CC(CC(O)(C3)C1)C2)Nc1ccccc1C(F)(F)F [Compound 14] | 41.3 nM | 41.3 nM | 84.81% | Increased B.G. | 0.12 | generally weak | – | –
5 | O=C(CNC12CC3CC(CC(O)(C3)C1)C2)Nc1cccc(C(F)(F)F)c1 [Compound 15] | 116 nM | > 100 nM | – | 0.72 | 1.18 | did not show good activity; also recorded: generally weak | 97.81* % | AUC % change from diabetic control [2]: −26.07%; AUC Δ from diabetic control [2]: 13729 mg·min/dL; Relative potency to vildagliptin [2]: 0.72; AUC of blood glucose in OGTT (X, mean) [2]: 38926* mg · dL^−1 · min; AUC % change from diabetic control ([3]; single oral dose 50 mg/kg): −39.13%; AUC Δ from diabetic control ([3]; single oral dose 50 mg/kg): 19985 mg·min/dL; AUC of blood glucose in OGTT (X, mean) ([3]; single oral dose 50 mg/kg): 31080* mg · dL^−1 · min; Fasting blood glucose level, Day 1 [4]: 167.20 ± mg/dL; Fasting blood glucose level, Day 2 [4]: 87.80 ± mg/dL; Fasting blood glucose level, Day 3 [4]: 177.60 ± mg/dL; Fasting blood glucose level, Day 4 [4]: 166.80 ± mg/dL; Fasting blood glucose level, Day 5 [4]: 175.80 ± mg/dL; Fasting blood glucose level, Day 6 [4]: 161.80 mg/dL
6 | COC(=O)c1ccccc1NC(=O)CNC12CC3CC(CC(O)(C3)C1)C2 [Compound 16] | – | – | 45.61% | – | – | weakened the enzyme inhibition activities | – | AUC % change from diabetic control [2]: −52.53%; AUC Δ from diabetic control [2]: 28183 mg·min/dL; Relative potency to vildagliptin [2]: 1.45; AUC of blood glucose in OGTT (X, mean) [2]: 24472* mg · dL^−1 · min; AUC % change from diabetic control ([3]; single oral dose 50 mg/kg): −39.51%; AUC Δ from diabetic control ([3]; single oral dose 50 mg/kg): 20179 mg·min/dL; Relative potency to vildagliptin ([3]; single oral dose 50 mg/kg, OGTT AUC): 1.19; AUC of blood glucose in OGTT (X, mean) ([3]; single oral dose 50 mg/kg): 30886* mg · dL^−1 · min; Fasting blood glucose level, Day 1 [4]: 174.00 mg/dL; Fasting blood glucose level, Day 2 [4]: 93.80 ± mg/dL; Fasting blood glucose level, Day 3 [4]: 158.40 ± mg/dL; Fasting blood glucose level, Day 4 [4]: 127.40 ± mg/dL; Fasting blood glucose level, Day 5 [4]: 171.00 ± mg/dL; Fasting blood glucose level, Day 6 [4]: 107.60 ± mg/dL
7 | O=C(CNC12CC3CC(CC(O)(C3)C1)C2)Nc1cccc(O)c1 [Compound 17] | 212 nM | > 100 nM | 44.44% | 1.42 | 0.26 | very weak activity | – | –
8 | N#Cc1ccccc1NC(=O)CNC12CC3CC(CC(O)(C3)C1)C2 [Compound 19] | 267 nM | > 100 nM | – | 0.87 | 0.23 | exception to nitrile performance | 99.06* % | –
9 | N#Cc1cccc(NC(=O)CNC23CC4CC(CC(O)(C4)C2)C3)c1 [Compound 26, N-(3-cyanophenyl)-2-[(3-hydroxyadamantan-1-yl)amino]acetamide] | 0.58 nM | 0.58 nM | – | 1.3 | 0.32 | high affinity towards the enzyme | – | DPP-4 enzyme inhibition activity, in words ([1]; listed as GLP-26): high level of potency both in vitro and in vivo; inhibition at 0.1 µM [1]: 83.1%; IC50 [1, 6]: < 1 nM
10 | O=C(CNC12CC3CC(CC(O)(C3)C1)C2)Nc1ccccc1F [Compound 27] | – | – | – | – | – | generally weak | 67.04* % | –
11 | Cc1cccc(NC(=O)CNC23CC4CC(CC(O)(C4)C2)C3)c1 [Compound 30] | – | – | – | – | – | much weaker enzyme inhibition activities | 70.92* % | –
12 | O=C(CNC12CC3CC(CC(O)(C3)C1)C2)Nc1cccc(F)c1 [Compound 31] | 62.3 nM | 62.3 nM | 56.23% | 0.85 | 0.37 | generally weak | – | –
13 | O=C(CNC12CC3CC(CC(O)(C3)C1)C2)Nc1ccc(Cl)cc1 [Compound 43] | 102 nM | > 100 nM | 51.64% | 1.39 | 0.26 | weak inhibitors at high concentration | – | –
14 | O=C(CNC12CC3CC(CC(O)(C3)C1)C2)NCc1ccccc1 [Compound 53] | 7.41 nM | – | – | – | – | – | – | inhibition at 0.1 µM [1]: 86.8%
15 | O=C(CNC12CC3CC(CC(O)(C3)C1)C2)NCc1ccc(F)cc1 [Compound 54] | 87.1 nM | 87.1 nM | 57.12% | Increased B.G. | Increased B.G. | – | – | –
16 | O=C(CNC12CC3CC(CC(O)(C3)C1)C2)NCCc1ccccc1 [Compound 59] | – | – | – | 0.83 | 0.52 | – | 67.04* % | –
17 | O=C(CNC12CC3CC(CC(O)(C3)C1)C2)Nc1ccc(O)cc1 [Compound 60] | – | – | – | 0.67 | 0.67 | very weak activity | 20.11* % | –
18 | O=C(CNC12CC3CC(CC(C3)C1)C2)Nc1cc(Cl)ccn1 [Compound 117] | 5.42 nM | – | 83.14% | – | – | high DPP-4 inhibition; also recorded: best functionality in enzyme inhibition activity | – | –
19 | Cc1cccc(C)c1NC(=O)CNC12CC3CC(CC(C3)C1)C2 [Compound 120] | – | – | – | – | – | much weaker enzyme inhibition activities | 62.84* % | –
20 | N#C[C@@H]1CCCN1C(=O)CNC12CC3CC(CC(O)(C3)C1)C2 [Vildagliptin, reference compound] | – | – | – | 1 | – | – | – | Fasting blood glucose level, Day 1 [4]: 205.20 ± mg/dL; Fasting blood glucose level, Day 2 [4]: 119.40 ± mg/dL; Fasting blood glucose level, Day 3 [4]: 169.20 ± mg/dL; Fasting blood glucose level, Day 4 [4]: 197.80 mg/dL; Fasting blood glucose level, Day 5 [4]: 244.60 mg/dL; Fasting blood glucose level, Day 6 [4]: 165.00 mg/dL
